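Growth conditions: 96-well plates. Treatment: test compound, 48 hours, 5 concentrations. Analysis: linear interpolation between bracketing concentrations; unreached endpoints set to highest concentration. Here, GI50 denotes the concentration required for 50% inhibition of growth. TGI: concentration producing complete growth inhibition.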
Columns and labels:
Assay in all cases: NCI-60 cell line screen, 48 h
[1] = system: NCI-H226 lung
[2] = system: SK-OV-3 ovarian
[3] = system: SF-268 CNS
[4] = system: K-562 leukemia
[5] = system: U251 CNS
[6] = system: TK-10 renal
[7] = system: OVCAR-8 ovarian
[8] = system: SK-MEL-28 melanoma
[9] = system: SR leukemia
[10] = system: RPMI-8226 leukemia
[11] = system: NCI-H23 lung
[12] = system: IGROV1 ovarian
[13] = system: MDA-MB-231 breast
[14] = system: RXF 393 renal
[15] = system: CAKI-1 renal
[16] = system: COLO 205 colon
[17] = system: MDA-MB-435
[18] = system: NCI/ADR-RES ovarian
[19] = system: HCT-116 colon
[20] = system: UO-31 renal
[21] = system: SF-295 CNS
[22] = system: HOP-62 NSCLC
[23] = system: KM12 colon
[24] = system: MCF7 breast
[25] = system: NCI-H522 lung
[26] = system: HOP-92 NSCLC
[27] = system: OVCAR-4 ovarian
[28] = system: UACC-62 melanoma
[29] = system: 786-0 renal
[30] = system: HT29 colon
[31] = system: T-47D breast
[32] = system: PC-3 prostate
[33] = system: MOLT-4 leukemia
[34] = system: SF-539 CNS
[35] = system: OVCAR-5 ovarian
[36] = system: HS 578T breast
[37] = system: LOX IMVI melanoma
[38] = system: SN12C renal
[39] = system: UACC-257 melanoma
[40] = system: NCI-H460 lung
[41] = system: SNB-75 CNS
[42] = system: HCT-15 colon
[43] = system: SW-620 colon
[44] = system: A549 NSCLC
[45] = system: SNB-19 CNS
[46] = system: SK-MEL-5 melanoma
[47] = system: M14 melanoma
[48] = system: HCC-2998 colon
[49] = system: EKVX NSCLC
[50] = system: SK-MEL-2 melanoma
[51] = system: MALME-3M melanoma
[52] = system: CCRF-CEM leukemia
[53] = system: BT-549 breast
[54] = system: DU-145 prostate
[55] = system: HL-60(TB) leukemia
[56] = system: A498 renal
[57] = system: ACHN renal

Work on `O=C(CCCCCCN1CC(=O)N2[C@@H](c3cccc(Br)c3)c3[nH]c4ccccc4c3C[C@H]2C1=O)NO` yielded a GI50 [1] of 5.01 µM, a TGI [1] greater than 16.7 µM and a GI50 [2] of 3.23 µM. It also gave a TGI [2] of 9.27 µM, a GI50 [3] of 3.44 µM and a TGI [3] of 9.8 µM. It also gave a GI50 [4] of 1.37 µM, a TGI [4] greater than 16.7 µM and a GI50 [5] of 2.78 µM. For the same compound, the TGI [5] was 10.7 µM, the GI50 [6] was 2.98 µM and the TGI [6] was 15.1 µM. The GI50 [7] was 2.32 µM, the TGI [7] was greater than 16.7 µM and the GI50 [8] was 2.51 µM. For the same compound, the TGI [8] was 10.5 µM, the GI50 [9] was 0.554 µM and the TGI [9] was 8.71 µM. For the same compound, the GI50 [10] was 0.982 µM, the TGI [10] was 11.6 µM and the GI50 [11] was 3.08 µM. It also gave a TGI [11] of 9.78 µM, a GI50 [12] of 0.403 µM and a TGI [12] of 1.11 µM. For the same compound, the GI50 [13] was 3.25 µM, the TGI [13] was 11.5 µM and the GI50 [14] was 1.51 µM. For the same compound, the TGI [14] was 5.21 µM, the GI50 [15] was 2.6 µM and the TGI [15] was 15 µM. For the same compound, the GI50 [16] was 2.28 µM, the TGI [16] was 8.36 µM and the GI50 [17] was 2.27 µM. For the same compound, the TGI [17] was 7.29 µM, the GI50 [18] was greater than 16.7 µM and the TGI [18] was greater than 16.7 µM. For the same compound, the GI50 [19] was 1.05 µM, the TGI [19] was 6.46 µM and the GI50 [20] was 3.3 µM. The TGI [20] was greater than 16.7 µM, the GI50 [21] was 2.57 µM and the TGI [21] was 6.58 µM. It also gave a GI50 [22] of 2.51 µM, a TGI [22] of 7.59 µM and a GI50 [23] of 2.95 µM. For the same compound, the TGI [23] was 6.65 µM, the GI50 [24] was 1.88 µM and the TGI [24] was 7.19 µM. It also gave a GI50 [25] of 0.8 µM, a TGI [25] of 5.77 µM and a GI50 [26] of 1.84 µM. For the same compound, the TGI [26] was 5.78 µM, the GI50 [27] was 3.17 µM and the TGI [27] was greater than 16.7 µM. The GI50 [28] was 1.78 µM, the TGI [28] was 5.38 µM and the GI50 [29] was 3.86 µM. The TGI [29] was 11.1 µM, the GI50 [30] was 2.23 µM and the TGI [30] was greater than 16.7 µM. The GI50 [31] was 1.65 µM, the TGI [31] was 12.8 µM and the GI50 [32] was 2.23 µM. The TGI [32] was greater than 16.7 µM, the GI50 [33] was 0.933 µM and the TGI [33] was 10.4 µM. For the same compound, the GI50 [34] was 2.89 µM, the TGI [34] was 10.5 µM and the GI50 [35] was 3.37 µM. The TGI [35] was greater than 16.7 µM, the GI50 [36] was 2.25 µM and the TGI [36] was 12.1 µM. For the same compound, the GI50 [37] was 0.203 µM, the TGI [37] was 0.431 µM and the GI50 [38] was 3.9 µM. For the same compound, the TGI [38] was greater than 16.7 µM, the GI50 [39] was 2.37 µM and the TGI [39] was greater than 16.7 µM. It also gave a GI50 [40] of 2.43 µM, a TGI [40] of 11.5 µM and a GI50 [41] of 0.707 µM. For the same compound, the TGI [41] was 9.15 µM, the GI50 [42] was 13 µM and the TGI [42] was greater than 16.7 µM. For the same compound, the GI50 [43] was 2.24 µM, the TGI [43] was 14.7 µM and the GI50 [44] was 4.83 µM. The TGI [44] was greater than 16.7 µM, the GI50 [45] was 3.79 µM and the TGI [45] was greater than 16.7 µM. For the same compound, the GI50 [46] was 2.6 µM, the TGI [46] was 9.06 µM and the GI50 [47] was 2.81 µM. The TGI [47] was 14.3 µM, the GI50 [48] was 2.66 µM and the TGI [48] was 5.81 µM. The GI50 [49] was 4.33 µM, the TGI [49] was greater than 16.7 µM and the GI50 [50] was 2.77 µM. For the same compound, the TGI [50] was 12.7 µM, the GI50 [51] was 0.922 µM and the TGI [51] was 7.45 µM. The GI50 [52] was 0.709 µM, the TGI [52] was greater than 16.7 µM and the GI50 [53] was 3.81 µM. The TGI [53] was 16.1 µM, the GI50 [54] was 3.13 µM and the TGI [54] was 12.3 µM. It also gave a GI50 [55] of 1.2 µM, a TGI [55] of 6.29 µM and a GI50 [56] of 2.75 µM. It also gave a TGI [56] of 6.31 µM, a GI50 [57] of 3.85 µM and a TGI [57] of 14.9 µM.

Compound `Nc1ccc(-c2nnc(SCc3ccc(O)c4ncccc34)o2)cc1` has a GI50 [1] of 0.441 µM, a TGI [1] greater than 100 µM and a GI50 [2] of 0.0807 µM. For the same compound, the TGI [2] was 0.577 µM, the GI50 [3] was 0.0641 µM and the TGI [3] was greater than 75.3 µM. For the same compound, the GI50 [4] was 0.0442 µM, the TGI [4] was greater than 100 µM and the GI50 [5] was 0.0354 µM. The TGI [5] was 11.8 µM, the GI50 [6] was 0.132 µM and the GI50 [7] was 0.0418 µM. It also gave a TGI [7] greater than 100 µM, a GI50 [8] of 0.139 µM and a TGI [8] greater than 100 µM. It also gave a GI50 [9] of 0.0891 µM, a TGI [9] greater than 100 µM and a GI50 [10] of 0.0461 µM. For the same compound, the TGI [10] was greater than 100 µM, the GI50 [11] was 0.0492 µM and the TGI [11] was greater than 26.9 µM. For the same compound, the GI50 [12] was 0.0846 µM, the TGI [12] was greater than 41.9 µM and the GI50 [13] was 0.154 µM. It also gave a TGI [13] of 22.6 µM, a GI50 [14] of 0.0906 µM and a TGI [14] greater than 85.9 µM. For the same compound, the GI50 [15] was 0.179 µM, the TGI [15] was greater than 68.1 µM and the GI50 [16] was 0.442 µM. It also gave a TGI [16] of 2.45 µM, a GI50 [17] of 0.0454 µM and a TGI [17] greater than 100 µM. The GI50 [18] was 0.0439 µM, the TGI [18] was greater than 100 µM and the GI50 [19] was 0.0379 µM. It also gave a TGI [19] of 28.8 µM, a GI50 [20] of 0.0619 µM and a TGI [20] of 1.91 µM. It also gave a GI50 [21] of 0.0412 µM, a TGI [21] greater than 39 µM and a GI50 [22] of 0.0815 µM. For the same compound, the TGI [22] was 7.62 µM, the GI50 [23] was 0.128 µM and the TGI [23] was greater than 100 µM. For the same compound, the GI50 [24] was 0.0387 µM, the TGI [24] was greater than 100 µM and the GI50 [25] was 0.044 µM. It also gave a TGI [25] greater than 50.7 µM, a GI50 [26] of 0.0238 µM and a TGI [26] of 0.0724 µM. It also gave a GI50 [27] of 0.259 µM, a TGI [27] greater than 100 µM and a GI50 [28] of 0.249 µM. For the same compound, the TGI [28] was 2.28 µM, the GI50 [29] was 0.224 µM and the TGI [29] was 16.7 µM. The GI50 [30] was 0.485 µM, the TGI [30] was greater than 100 µM and the GI50 [31] was 0.085 µM. The TGI [31] was greater than 100 µM, the GI50 [32] was 0.0502 µM and the TGI [32] was greater than 100 µM. For the same compound, the GI50 [33] was 0.124 µM, the TGI [33] was greater than 100 µM and the GI50 [34] was 0.0642 µM. The TGI [34] was 8.75 µM, the GI50 [35] was 0.498 µM and the TGI [35] was greater than 100 µM. For the same compound, the GI50 [36] was 0.0509 µM, the TGI [36] was greater than 100 µM and the GI50 [37] was 0.0305 µM. It also gave a TGI [37] greater than 33.7 µM, a GI50 [38] of 0.0392 µM and a TGI [38] greater than 100 µM. For the same compound, the GI50 [39] was 0.207 µM, the TGI [39] was 0.91 µM and the GI50 [40] was 0.0367 µM. It also gave a GI50 [41] of 0.112 µM, a TGI [41] of 12.9 µM and a GI50 [42] of 0.0382 µM. The TGI [42] was greater than 100 µM, the GI50 [43] was 0.0618 µM and the TGI [43] was greater than 100 µM. For the same compound, the GI50 [44] was 0.0417 µM, the TGI [44] was greater than 100 µM and the GI50 [45] was 0.0438 µM. For the same compound, the TGI [45] was greater than 51.8 µM, the GI50 [46] was 0.0491 µM and the GI50 [47] was 0.0604 µM. It also gave a TGI [47] of 2.81 µM, a GI50 [48] of 0.177 µM and a TGI [48] greater than 100 µM. For the same compound, the GI50 [50] was 0.0792 µM, the TGI [50] was 2.73 µM and the GI50 [51] was 0.0927 µM. It also gave a TGI [51] of 31.9 µM, a GI50 [52] of 0.0617 µM and a TGI [52] greater than 100 µM. It also gave a GI50 [53] of 0.0558 µM, a TGI [53] greater than 100 µM and a GI50 [54] of 0.055 µM. The TGI [54] was greater than 38.5 µM, the GI50 [55] was 0.0987 µM and the TGI [55] was 1.22 µM. The GI50 [56] was 0.317 µM, the TGI [56] was 3.3 µM and the GI50 [57] was 0.0726 µM. The TGI [57] was greater than 31.9 µM.

From PubChem BioAssay (NCI)
